Assay results: publication PMC11054906 (Pharmaceuticals, 2024)

Columns and labels:
[1] = Population PK analysis (NLME, Monolix) of empagliflozin plasma concentrations from two phase 1 crossover studies; type: in vivo, healthy Korean subjects
From the text: Data from two clinical studies (NCT03849495 and NCT03848637) were used in this study to develop the PK model and conduct population PK analysis. Both of the studies were randomized, open-label, two-period, two-sequence, crossover studies comparing the PK characteristics, safety and tolerability profiles of the two study drugs in healthy Korean subjects. Healthy subjects aged between 19 and 50 years with BMIs of 18–27 kg/m^2 were recruited for both studies. Subjects without any clinically significant medical history, and without any clinically significant findings in physical examinations, vital signs, 12-lead electrocardiograms (ECG), and clinical laboratory test results were eligible for the studies. Subjects who could not abstain from alcohol, smoking, or drug use throughout the study were excluded. To ensure safety, subjects with any allergies to the study medications were also excluded. Adverse drug reactions were assessed throughout the study period, and the monitoring of physical examinations, vital signs, 12-lead ECG, and laboratory tests was also performed.
Demographic data, clinical laboratory data, and time–plasma concentration data were pooled to develop a population PK model.
Blood samples were collected before drug administration (0 h) and 0.33 h, 0.67 h, 1 h, 1.5 h, 2 h, 2.5 h, 3 h, 4 h, 6 h, 8 h, 10 h, 12 h, 24 h, 34 h, and 48 h after study’s drug administration in the first study. In the second study, blood samples were also collected at 3.5 h and 5 h. Thus, a total of 16 and 18 blood samples were collected from each healthy volunteer in the two clinical studies, respectively. […] In the second study, the plasma concentrations of empagliflozin were quantified by using liquid chromatography–mass spectrometry (LC–MS) equipped with API 4000 (SCIEX; multiple reaction monitoring, electrospray ionization, and positive SCIEX mode). All experiments adhered to the standards of good laboratory practice as described previously. The calibration ranges in these two studies were 2–1500 ng/mL and 0.5–150 ng/mL, respectively.
The population PK analysis was conducted using a nonlinear mixed effect (NLME) modeling method with Monolix® Suite 2021R1 (Lixoft, Antony, France). The stochastic approximation expectation maximization (SAEM) algorithm was implemented, and model qualification was performed using a likelihood ratio test, Bayesian information criterion (BIC), goodness-of-fit (GOF) diagnostic plots, and visual predictive checks (VPCs). Various compartment models with lag time, transit compartment, and Weibull absorption were established to construct the base PK model.
After the development of the base model, interindividual variability (IIV), interoccasion variability (IOV), and residual errors were added to the model. Because of the crossover study design, the random variation in the population PK parameters was described by both the IIV and IOV, with all the individual parameters considered to be log-normally distributed. IIV and IOV were sequentially implemented, and the parameters were subsequently removed or fixed at low values when converging to zero. The exponential random effects terms for the IIV and IOV are shown in Formulas (2) and (3), respectively. (2) Pi=θk×e^ηi where Pi represents the parameter value k from individual i and θk describes the population value of parameter k. ηi denotes the difference between Pi and θk. (3) Pi,occ=θk×e^ηi+Kkiq where Pi,occ is the individual parameter value k from individual i at occasion q that differs from the typical individual value by an additional random effect Kkiq. An occasion was characterized as the time period from the start of an infusion until the start of the next administration. ηki and Kkiq were assumed to be symmetrically distributed with a zero mean and a variance of σ^2 and γ^2, respectively. […]

[2] = design: method as in PMID 23940010, PMID 27312794, PMID 29251772, PMID 24964723; settings: cited from earlier work
[3] = 1000 bootstrap resampling, interindividual variability
[4] = 1000 bootstrap resampling, interoccasion variability
[5] = final model, oral single dose, both formulations pooled

Question: For `OC[C@H]1O[C@@H](c2ccc(Cl)c(Cc3ccc(O[C@H]4CCOC4)cc3)c2)[C@H](O)[C@@H](O)[C@@H]1O` [empagliflozin, Empagliflozin], which “CL, median of bootstrap (95% CI)” value ([1]; 1000 bootstrap resampling) is on record?
Answer: The value was 8.21 (7.945–8.465) L/h.

Question: And the “Ka, median of bootstrap (95% CI)” value ([1]; 1000 bootstrap resampling)?
Answer: The value was 0.25 (0.23–0.275) h^−1.

Question: What about the “Ktr, median of bootstrap (95% CI)” value ([1]; 1000 bootstrap resampling) of the same compound?
Answer: Its value is 8.94 (6.766–11.728) h^−1.

Question: And the “Mtt, median of bootstrap (95% CI)” value ([1]; 1000 bootstrap resampling)?
Answer: The value was 0.64 (0.526–0.725) h.

Question: And the “Q, median of bootstrap (95% CI)” value ([1]; 1000 bootstrap resampling)?
Answer: The value was 4.66 (3.979–5.456) L/h.

Question: What about the “V1, median of bootstrap (95% CI)” value ([1]; 1000 bootstrap resampling) of the same compound?
Answer: The value was 0.64 (0–1.889) L.

Question: What about the “V2, median of bootstrap (95% CI)” value ([1]; 1000 bootstrap resampling) of the same compound?
Answer: The value was 43.93 (41.255–47.171) L.

Question: What about the “b (residual variability), median of bootstrap (95% CI)” value ([1]; 1000 bootstrap resampling) of the same compound?
Answer: Its value is 0.16 (0.141–0.175).

Question: What about the “βCL_logWT, median of bootstrap (95% CI)” value ([1]; 1000 bootstrap resampling) of the same compound?
Answer: The value was 0.64 (0.366–0.926).

Question: What about the “βV2_logWT, median of bootstrap (95% CI)” value ([1]; 1000 bootstrap resampling) of the same compound?
Answer: The value was 0.54 (0.221–0.851).

Question: What about the “ωCL, median of bootstrap (95% CI)” value [1, 3] of the same compound?
Answer: The value was 0.12 (0.101–0.141).

Question: What about the “ωKa, median of bootstrap (95% CI)” value [1, 3] of the same compound?
Answer: Its value is 0.16 (0.116–0.208).

Question: What about the “ωV2, median of bootstrap (95% CI)” value [1, 3] of the same compound?
Answer: Its value is 0.13 (0.1–0.172).

Question: And the “γCL, median of bootstrap (95% CI)” value [1, 4]?
Answer: Its value is 0.04 (0.025–0.06).

Question: And the “γKa, median of bootstrap (95% CI)” value [1, 4]?
Answer: The value was 0.04 (0.023–0.062).

Question: What about the “γKtr, median of bootstrap (95% CI)” value [1, 4] of the same compound?
Answer: The value was 1.11 (0.858–1.334).

Question: What about the “γMtt, median of bootstrap (95% CI)” value [1, 4] of the same compound?
Answer: Its value is 0.44 (0.359–0.528).

Question: And the “b, residual variability (proportional error)” value ([1]; final model)?
Answer: Its value is 0.16.

Question: And the “βV2_logWT (effect of log-transformed body weight on V2)” value ([1]; final model, covariate coefficient)?
Answer: Its value is 0.57.

Question: What about the “Ktr (transit rate constant), population value” ([1]; final model, oral single dose 25 mg or 5 mg (with metformin 1000 mg), both formulations pooled) of the same compound?
Answer: The value was 9.19 h⁻¹.

Question: What about the “CL (clearance), population value” [1, 5] of the same compound?
Answer: Its value is 8.21 L/h.

Question: What about the “Ka (absorption rate constant), population value” [1, 5] of the same compound?
Answer: Its value is 0.26 h⁻¹.

Question: What about the “Mtt (mean transit time for absorption), population value” [1, 5] of the same compound?
Answer: Its value is 0.63 h.

Question: What about the “V1, population value” [1, 5] of the same compound?
Answer: Its value is 0.6 L.

Question: What about the “Mtt (mean transit time)” value ([1]; final two-compartment transit model) of the same compound?
Answer: The value was 37.8 min.

Question: What about the “number of transit compartments” value ([1]; from Formula (1), Mtt and Ktr of the final model) of the same compound?
Answer: Its value is 4.79.

Question: And the γCL, interoccasion variability ([1]; presented as SD (CV))?
Answer: Its γCL, interoccasion variability is 4.3%.

Question: And the “γKa, interoccasion variability” value ([1]; presented as SD (CV))?
Answer: Its value is 0.029 (2.90) %.

Question: What about the “γKtr, interoccasion variability” value ([1]; presented as SD (CV)) of the same compound?
Answer: Its value is 1.17 (171.20) %.

Question: What about the “γMtt, interoccasion variability” value ([1]; presented as SD (CV)) of the same compound?
Answer: Its value is 0.42 (43.92) %.

Question: What about the “ωCL, interindividual variability” value ([1]; presented as SD (CV)) of the same compound?
Answer: Its value is 0.12 (12.04) %.

Question: What about the “ωV2, interindividual variability” value ([1]; presented as SD (CV)) of the same compound?
Answer: Its value is 0.13 (13.06) %.

Question: What about the “estimated Mtt” value ([2]; three transit compartment model) of the same compound?
Answer: Its value is 30 min.

Question: What about the “lag time (fixed) of lagged first-order oral absorption” value ([2]; two-compartment model) of the same compound?
Answer: The value was 0.5 h.
